# Test results as given in patent US20250320226.
# Read-outs that look alike come from different tables or passages of the source.
compound,measurement,setting,value
C[C@@H]1C/C=C\CCC(OCc2ccccc2)(C(F)(F)F)C2=NN=C(O2)c2nc(c(C(F)(F)F)cc2NC(=O)OC(C)(C)C)O1 (stereo partly drawn),"ring closure, isolated yield","from C[C@H](CC[P+](c1ccccc1)(c1ccccc1)c1ccccc1)Oc1nc(-c2nnc(C(CCC=O)(OCc3ccccc3)C(F)(F)F)o2)c(N(C(=O)OC(C)(C)C)C(=O)OC(C)(C)C)cc1C(F)(F)F, other bond, 14-membered ring, NaOtBu, THF, 11.2 mM",50%
"tert-Butyl ((4R,10R)-10-(benzyloxy)-4-methyl-25,10-bis(trifluoromethyl)-3-oxa-1(2,5)-oxadiazola-2(2,6)-pyridinacyclodecaphane-23-yl)carbamate","ring closure, isolated yield","ether bond, 14-membered ring, PPh3/DIAD, toluene, 30.2 mM",52%
C[C@H]1CCCCC[C@](O)(C(F)(F)F)C(=O)NNC(=O)c2nc(c(C(F)(F)F)cc2NC(=O)OC(C)(C)C)O1,"ring closure, isolated yield","from C[C@@H](CCCCC[C@@](O)(C(=O)O)C(F)(F)F)Oc1nc(C(=O)NN)c(NC(=O)OC(C)(C)C)cc1C(F)(F)F, amide bond, 15-membered ring, HATU/DIEA, DMF (DIEA added in 2-MeTHF), 21.9 mM",15%
